Values joined by “and” are separate entries in the source; they are usually repeats but may differ in a detail not shown here. Equal entries are not always repeated. “Also recorded” adds a separate entry of the source.
What was measured:
[1] = system: supF gene within the pSP189 SV40 vector; assay: SV40 mutagenesis: vector DNA passaged in COS-7 cells; assay type: cell-based, monkey
Description: FIG. 3 is a schematic representation of the strategy for targeted mutagenesis of SV40 DNA. The 10 base triplex-forming oligonucleotide, psoralen-AG10 (4′hydroxymethyl-4,5′,8-trimethylpsoralen-5′[…]3′) (SEQ ID NO:1), is shown directly above its targeted sequence in the supF gene (base pairs 167–176), contained within the SV40 vector, pSP189. Psoralen-AG10 is incubated with the SV40 vector DNA to allow site-specific triplex formation. Photoactivation of the psoralen by irradiation with long wave ultraviolet light (320–400 nm) is designed to generate an adduct at the targeted base pair (167), as indicated by the arrow. The oligo-plasmid complex is then transfected into monkey COS-7 cells and allowed to replicate for 48 hours. Following purification of the vector DNA by the Hirt lysate procedure (Hirt et al., J. Mol. Biol. 26:365–369 (1967)), the DNA is used to transform E. coli SY204 lacZ125 (Am).
SV40 mutagenesis. The SV40 vector DNA (pSP189) at 80 nM was incubated with psoralen-AG10 or psoralen-GA10 (ranging from 2 to 1000-fold molar excess) and irradiated as described above. The oligonucleotide-plasmid complex was then transfected into monkey COS-7 cells (ATCC #1651-CRL) using cationic liposomes (DOTAP, Boehringer Manheim, Indianapolis, Ind.) at a final concentration of 5 μg/ml in the culture dish. The DNA/oligo/liposome mixture was added dropwise to the cell culture dish with swirling. The following day, the media containing the liposome mixture was replaced by fresh media. Following 48 hours to allow repair and replication, SV40 vector DNA was harvested from the COS cells by the Hirt lysate procedure. Genetic analysis of the supF genes in the SV40 vector was carried out by transformation of E. coli SY204 [lacZ125(Am)] to ampicillin resistance by electroporation using 12–150 ng of Dpn I digested Hirt lysate DNA and a Bio-Rad Gene Pulser apparatus equipped with a Pulse Controller (Bio-Rad, Richmond, Calif.). Mutants were identified by growth in the presence of 65 μg/ml IPTG and 80 μg/ml X-Gal, as described by (Glazer et al., Mol. Cell Biol. 7:218–224 (1987)). These transformants were counted and the mutants (white colonies) were streaked for single colonies.
In this vector system, the SV40 DNA, after appropriate treatment, is introduced into monkey COS cells where repair and replication can occur, producing mutations indicative of mammalian processing of DNA damage. The small, circular vector DNA is recovered from the cells by biochemical separation from the chromosomal DNA (Hirt lysate, Hirt et al., J. Mol. Biol. 26:365–369 (1967)), and it is used to transform E. coli carrying the lacZ (amber) mutation to allow analysis of supF gene function by scoring colonies for β-galactosidase activity (produced via suppression of the amber mutation in lacZ) in the presence of the chromogenic substrate, X-gal. Vectors with wild type supF genes yield blue colonies; those with mutations in supF produce white ones. In order to eliminate misleading data that might arise from viral DNA that was not replicated or repaired in the mammalian cells, the viral DNA is digested before bacterial transformation with the enzyme Dpn I which will restrict DNA that has not been methylated by the mammalian pattern at its recognition site.
The design of the initial experiments to target mutations to SV40 DNA is illustrated in FIG. 3. A 10 base pair region of the supF gene (bp 167–176) was identified as a site amenable to triplex formation because of the homopurine/homopyrimidine run there. Since this run was G-rich, the purine motif for triplex formation was selected (Beal and Dervan, Science 251:1360–1363 (1991)), and an oligonucleotide, 5′[…]3′ (SEQ ID NO:2) (AG10) was synthesized based on this motif. A psoralen derivative, 4′-hydroxymethyl-4,5′,8-trimethylpsoralen, was attached to the oligonucleotide by a phosphodiester linkage at the 5′ adenine via a two carbon linker arm, with the goal of directing mutations to base pair 167.

[2] = system: supF gene of the lambda vector; assay: Sequence analysis of supF mutants from lambda vector; design: species or system E. coli; details: plus UVA
Description: FIGS. 2A and 2B show a sequence analysis of targeted mutagenesis in the supF gene by the psoralen-linked triplex-forming oligonucleotide (pso-AG10). In FIG. 2A, mutations produced by pso-AG10 and UVA are indicated above each base pair, with the listed base representing the change from the sequence in the top strand. […] The asterisk indicates the targeted base pair at position 167. DNA sequence data was obtained by automated methods after polymerase chain reaction amplification of the supF genes from lambda phage plaques in accordance with the method of Connell et al., Biotechniques 5:342 (1987). FIG. 2B is a compilation of mutations induced in supF by 8-methoxypsoralen and UVA in mouse L-cells using the lambda supF vector of FIG. 1 or generated using a plasmid shuttle vector in monkey Vero cells in accordance with the method of Bredberg and Nachmansson, Carcinogenesis 8:1923 (1987), to compare the mutations produced in supF by free psoralen with those produced by the triplex forming oligonucleotide AG10.
To obtain direct evidence for targeted mutagenesis, a series of independent mutants produced in the supF gene of the lambda vector by pso-AG10 and UVA were sequenced. […] The A:T base pair at 167 forms a triplet with the 5′ adenine to which the psoralen is tethered in AG10, and so it is the closest base pair to the psoralen. The overwhelming predominance of the T:A to A:T transversion at this site is consistent with the mutagenic action of psoralen, which tends to form adducts at pyrimidines, and especially at thymidines. It should be noted that these mutations are independent and none of the mutations represent siblings because each packaged lambda particle gives rise to a single, separate lambda plaque on the bacterial lawn.

[3] = ratio of oligo to vector 2:1, UVA 1.8 J/cm^2
[4] = ratio of oligo to vector 5:1, UVA 1.8 J/cm^2
[5] = ratio of oligo to vector 10:1, UVA 1.8 J/cm^2
[6] = ratio of oligo to vector 1000:1, no UVA

Substance	Fold higher targeted mutagenesis in SV40 than in bacteriophage lambda grown in E. coli ([1]; 6% to 7% versus 0.23%) [fold]	% mutants (supF gene) [1, 3] [%]	% mutants (supF gene) [1, 4] [%]	% mutants (supF gene) [1, 5] [%]	% mutants (supF gene) ([1]; ratio of oligo to vector 1000:1, UVA 1.8 J/cm^2) [%]	% mutants (supF gene) [1, 6]	Mutants per total colonies [1, 6]	Share of sequenced supF mutations that are the T:A to A:T transversion at targeted base pair 167 ([2]; 25 mutants) [%]	Position of supF mutations relative to targeted base pair 167 [2]	supF mutagenesis relative to background ([1]; lower ratios of oligo to vector (below 1000:1), plus UVA)	% mutants (supF gene) ([1]; ratio of oligo to vector 1000:1, UVA 1.8 J/cm^2, listed as psoralen-GA10)
4′-hydroxymethyl-4,5′,8-trimethylpsoralen-^5′AGGAAGGGGG^3′ (DNA NAGGAAGGGGG; 4'-hydroxymethyl-4,5',8-trimethylpsoralen conjugated at 5' end, further chemistry not given here) [pso-AG10]	30	2.5	4.3	6.4	7.3	≦0.06%	0/1700	56	All except one of the 25 mutations produced by pso-AG10 is at or near the targeted T:A base pair at position 167; also recorded: almost all were targeted by the triplex-forming oligonucleotide	–	–
pso-^5′GGGGGAAGGA^3′ (DNA NGGGGGAAGGA; psoralen conjugated at 5' end, further chemistry not given here) [pso-GA10, reference compound]	–	0.07	0.13	0.06	–	≦0.07%	0/1500	–	Neither of the two mutations induced by the reverse oligomer, pso-GA10, were found to occur at base pair 167	no significant mutagenesis above the background frequency	0.5% and 0.63%

— patent US7078389B2, “Chemically modified oligonucleotide for site-directed mutagenesis” (priority 1993, dated 2006)
